Assay in all cases: relative viability (nuclei count vs DMSO), 5 days (fraction); higher = more cells survive
Compound in the experiment “Quizartinib + AZD7762”: CC(C)(C)c1cc(NC(=O)Nc2ccc(-c3cn4c(n3)sc3cc(OCCN5CCOCC5)ccc34)cc2)no1 [Quizartinib] + NC(=O)Nc1cc(-c2cccc(F)c2)sc1C(=O)N[C@H]1CCCNC1 [AZD7762] (partner 0.2 µM)
Put shortly:
(§1)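 A single step with final 0.05% Triton X-100, 1% formaldehyde and 1 ug/ml Hoechst fixed the cells and stained nuclei 5 days after treatment. Lung cancer cell lines in 1536-well plates had been treated by pin tool the day after seeding with one drug alone or a fixed anchor-drug dose plus five library-drug doses (not always all listed) in √10 steps, and nuclei were counted on 4× images. Relative viability is the ratio of nuclei in treated wells to nuclei in vehicle wells, taken as the median of duplicate plates.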

Compound in the experiment “YM155 + Trametinib”: COCC[n+]1c2c(n(Cc3cnccn3)c1C)C(=O)c1ccccc1C2=O [YM155] + CC(=O)Nc1cccc(-n2c(=O)n(C3CC3)c(=O)c3c(Nc4ccc(I)cc4F)n(C)c(=O)c(C)c32)c1 [Trametinib] (partner 0.02 µM)
Put shortly: as §1

Compound in the experiment “YM155 + Olaparib”: COCC[n+]1c2c(n(Cc3cnccn3)c1C)C(=O)c1ccccc1C2=O [YM155] + O=C(c1cc(Cc2n[nH]c(=O)c3ccccc23)ccc1F)N1CCN(C(=O)C2CC2)CC1 [Olaparib] (partner 8 µM)
Put shortly: as §1

Compound in the experiment “YM155 + Vorinostat”: COCC[n+]1c2c(n(Cc3cnccn3)c1C)C(=O)c1ccccc1C2=O [YM155] + O=C(CCCCCCC(=O)Nc1ccccc1)NO [Vorinostat] (partner 1 µM)
Put shortly:
as §1

Compound in the experiment “YM155 + Decitabine”: COCC[n+]1c2c(n(Cc3cnccn3)c1C)C(=O)c1ccccc1C2=O [YM155] + Nc1ncn([C@H]2C[C@H](O)[C@@H](CO)O2)c(=O)n1 [Decitabine] (partner 2 µM)
Put shortly: as §1

Compound in the experiment “Quizartinib + Trametinib”: CC(C)(C)c1cc(NC(=O)Nc2ccc(-c3cn4c(n3)sc3cc(OCCN5CCOCC5)ccc34)cc2)no1 [Quizartinib] + CC(=O)Nc1cccc(-n2c(=O)n(C3CC3)c(=O)c3c(Nc4ccc(I)cc4F)n(C)c(=O)c(C)c32)c1 [Trametinib] (partner 0.02 µM)
Put shortly: as §1

Consider NCI-H1648, for which the relative viability with Quizartinib + AZD7762 (first compound 0.003162 µM) turned out to be 0.612; with Quizartinib + AZD7762 (first compound 0.03162 µM) it was 0.629; with Quizartinib + AZD7762 (first compound 0.1 µM) it was 0.821; with YM155 + Trametinib (first compound 0.006325 µM), 0.902; with YM155 + Trametinib (first compound 0.02 µM), 0.444; with YM155 + Trametinib (first compound 0.06325 µM) it was 0.651. In addition, the relative viability with YM155 + Olaparib (first compound 0.006325 µM) was 1.06; with YM155 + Olaparib (first compound 0.02 µM), 0.6; in the experiment with YM155 + Olaparib (first compound 0.06325 µM), 0.762; with YM155 + Vorinostat (first compound 0.006325 µM), 0.386; with YM155 + Vorinostat (first compound 0.02 µM), 0.565; with YM155 + Vorinostat (first compound 0.06325 µM) it was 0.301. Besides, the relative viability with YM155 + Decitabine (first compound 0.006325 µM) is 0.593; with YM155 + Decitabine (first compound 0.02 µM), 0.41; in the experiment with YM155 + Decitabine (first compound 0.06325 µM), 0.599; in the experiment with Quizartinib + Trametinib (first compound 0.003162 µM) it was 0.401; with Quizartinib + Trametinib (first compound 0.03162 µM), 0.581; with Quizartinib + Trametinib (first compound 0.1 µM) it was 0.486.
